Experimental data published in BindingDB's records for doi:10.1007/s00044-007-9043-6 (Central Drug Research Institute, 2008).

biological target: T1, Tyrosine-protein phosphatase non-receptor type 1 (Homo sapiens, UniProt P18031); test: In Vitro Assay; details: pH 7
T1 sequence (P18031 whole entry): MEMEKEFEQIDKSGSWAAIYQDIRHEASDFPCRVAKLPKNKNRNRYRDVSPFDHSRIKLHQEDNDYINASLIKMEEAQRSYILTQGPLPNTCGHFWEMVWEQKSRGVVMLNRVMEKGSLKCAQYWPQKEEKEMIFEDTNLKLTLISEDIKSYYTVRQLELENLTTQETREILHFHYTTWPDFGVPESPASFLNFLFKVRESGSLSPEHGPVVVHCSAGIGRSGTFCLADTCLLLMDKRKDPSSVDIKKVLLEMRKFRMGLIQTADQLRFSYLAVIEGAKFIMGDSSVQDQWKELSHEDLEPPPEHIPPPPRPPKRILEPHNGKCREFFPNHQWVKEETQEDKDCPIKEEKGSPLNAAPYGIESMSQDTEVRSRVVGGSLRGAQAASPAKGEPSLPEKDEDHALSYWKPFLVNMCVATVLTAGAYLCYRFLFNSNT
Description: The effect of the test compounds on PTP1B was studied by preincubating the test compound with enzyme in the reaction system for 10 min and determining the residual enzyme activity according to the Goldstein method.

SMILES	IC50 [µM]	Ki [µM]
COc1ccc(C2CC(c3ccc4c(c3OC)C=CC(C)(C)O4)=NO2)cc1 (stereo not given) [PTP1B Inhibitor, 6]	91	56
COc1c(C2=NOC(c3ccccc3)C2)ccc2c1C=CC(C)(C)O2 (stereo not given) [PTP1B Inhibitor, 5]	70	30
COc1cc(C=O)ccc1C1=NOC(c2ccccc2)C1 (stereo not given) [PTP1B Inhibitor, 10]	69	48
COc1ccc(C2CC(c3ccc(C=O)cc3OC)=NO2)cc1 (stereo not given) [PTP1B Inhibitor, 11]	67	48

More lines, in order of falling IC50, values ahead:

IC50 [µM]	Ki [µM]	SMILES
485	170	COc1cc(C=O)ccc1C1=NOC(c2ccccn2)C1 (stereo not given) [PTP1B Inhibitor, 12]
275	150	COc1cc(C=O)ccc1C1=NOC(c2ccncc2)C1 (stereo not given) [PTP1B Inhibitor, 13]
165	135	COC(=O)C1C(c2ccc(C=O)cc2OC)=NOC1c1ccccc1 (stereo not given) [PTP1B Inhibitor, 15]
88	63	COc1cc(C=O)ccc1C1=NOC(n2ccnc2)C1 (stereo not given) [PTP1B Inhibitor, 14]
87	34	COc1c(C2=NOC(c3ccccn3)C2)ccc2c1C=CC(C)(C)O2 (stereo not given) [PTP1B Inhibitor, 7]
62.7	25	CC(=O)Oc1ccc(C2=NOC(c3ccccc3)C2)c(OC(C)=O)c1 (stereo not given) [PTP1B Inhibitor, 19]
